Assay results: patent publication US11040981B2, “Pyrrolotriazine compounds and methods of inhibiting TAM kinases” (Syros Pharmaceuticals, Inc., priority 2017, dated 2021)

Columns and labels:
[1] = molecular target: T1, MERTK (Homo sapiens, UniProt Q12866); assay: TR-FRET kinase activity assay, MERTK; assay type: biochemical
T1 sequence (Q12866 21-999): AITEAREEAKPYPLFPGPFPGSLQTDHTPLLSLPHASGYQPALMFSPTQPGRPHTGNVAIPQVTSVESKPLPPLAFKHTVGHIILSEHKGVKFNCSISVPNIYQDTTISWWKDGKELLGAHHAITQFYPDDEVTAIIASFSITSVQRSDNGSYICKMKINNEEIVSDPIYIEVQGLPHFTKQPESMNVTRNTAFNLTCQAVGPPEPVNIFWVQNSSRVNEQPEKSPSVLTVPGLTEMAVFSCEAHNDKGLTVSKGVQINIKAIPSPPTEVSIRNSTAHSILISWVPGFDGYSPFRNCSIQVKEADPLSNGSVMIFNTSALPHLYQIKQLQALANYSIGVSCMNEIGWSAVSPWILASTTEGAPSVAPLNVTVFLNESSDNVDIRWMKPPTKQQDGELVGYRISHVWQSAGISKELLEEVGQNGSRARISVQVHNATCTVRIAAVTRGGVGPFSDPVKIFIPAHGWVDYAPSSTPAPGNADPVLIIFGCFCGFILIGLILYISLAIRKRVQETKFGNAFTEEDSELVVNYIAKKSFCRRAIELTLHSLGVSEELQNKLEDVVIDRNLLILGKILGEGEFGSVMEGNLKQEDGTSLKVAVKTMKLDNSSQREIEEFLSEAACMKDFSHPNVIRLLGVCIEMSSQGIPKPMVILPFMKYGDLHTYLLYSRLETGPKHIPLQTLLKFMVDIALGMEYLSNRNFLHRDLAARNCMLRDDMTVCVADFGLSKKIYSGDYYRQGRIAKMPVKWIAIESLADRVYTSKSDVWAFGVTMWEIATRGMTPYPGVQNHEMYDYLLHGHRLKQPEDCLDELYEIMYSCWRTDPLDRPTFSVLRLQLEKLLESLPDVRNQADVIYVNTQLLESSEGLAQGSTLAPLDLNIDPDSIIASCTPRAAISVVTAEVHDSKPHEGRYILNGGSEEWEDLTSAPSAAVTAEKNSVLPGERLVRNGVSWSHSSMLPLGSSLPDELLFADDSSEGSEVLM
Summary of the method: (§1)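 Recombinant human kinases, fluorescent peptide substrate, ATP at Km; 1 h RT, pH 7.5. EDTA-quenched, Eu antibody added, TR-FRET read; IC50 determined.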

[2] = molecular target: T2, FLT3 (Homo sapiens, UniProt P36888); assay: TR-FRET kinase activity assay, FLT3; assay type: biochemical; settings: ATP at Km, 60 minutes
T2 sequence (P36888 27-993): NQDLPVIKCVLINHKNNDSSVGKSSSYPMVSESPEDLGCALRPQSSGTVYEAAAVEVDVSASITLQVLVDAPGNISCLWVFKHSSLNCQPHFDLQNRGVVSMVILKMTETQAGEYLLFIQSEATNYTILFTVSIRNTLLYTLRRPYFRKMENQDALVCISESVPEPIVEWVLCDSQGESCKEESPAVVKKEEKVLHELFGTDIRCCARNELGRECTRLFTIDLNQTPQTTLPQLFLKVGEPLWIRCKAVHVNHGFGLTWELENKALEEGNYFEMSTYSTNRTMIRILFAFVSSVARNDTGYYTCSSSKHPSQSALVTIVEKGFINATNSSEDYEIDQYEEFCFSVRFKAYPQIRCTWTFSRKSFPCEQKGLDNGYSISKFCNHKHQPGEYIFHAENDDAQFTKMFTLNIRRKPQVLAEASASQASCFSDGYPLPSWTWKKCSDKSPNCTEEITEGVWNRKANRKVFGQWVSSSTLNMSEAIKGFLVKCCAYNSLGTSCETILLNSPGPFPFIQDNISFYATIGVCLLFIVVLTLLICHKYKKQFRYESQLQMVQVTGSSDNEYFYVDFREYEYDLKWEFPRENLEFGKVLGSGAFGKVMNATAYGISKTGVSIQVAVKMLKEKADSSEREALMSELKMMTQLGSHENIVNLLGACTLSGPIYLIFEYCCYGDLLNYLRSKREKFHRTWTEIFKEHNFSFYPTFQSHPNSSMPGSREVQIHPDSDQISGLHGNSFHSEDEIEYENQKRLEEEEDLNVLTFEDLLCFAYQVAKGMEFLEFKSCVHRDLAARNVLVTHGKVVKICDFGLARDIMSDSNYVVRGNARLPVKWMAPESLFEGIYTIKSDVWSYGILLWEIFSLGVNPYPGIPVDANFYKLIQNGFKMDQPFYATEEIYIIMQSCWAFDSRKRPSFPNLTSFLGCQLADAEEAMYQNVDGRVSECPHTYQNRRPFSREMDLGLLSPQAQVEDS
Summary of the method: as §1

IC50 ([1]; TR-FRET activity assay, ATP at Km, 60 minutes, read-out: Mer IC50): ≤ 100 nM
FLT3/Mer ratio (FLT3 IC50/Mer IC50) ([1]; ratio of Mer to FLT3: FLT3 IC50/Mer IC50): +++ (“+++” represents a ratio of >100)
IC50 [2]: 1000 to 10000 nM
SMILES: COC[C@H](C)Nc1ncc2c(-c3cc([C@H]4CC[C@H](O)CC4)n4nc(N[C@@H](C)COC)ncc34)cc([C@H]3CC[C@H](O)CC3)n2n1 [Compound 349]
